Molecular target: T1, Gc4EO (Gulosibacter chungangensis, UniProt A0A7J5BGR1)
T1 sequence (A0A7J5BGR1 1-529): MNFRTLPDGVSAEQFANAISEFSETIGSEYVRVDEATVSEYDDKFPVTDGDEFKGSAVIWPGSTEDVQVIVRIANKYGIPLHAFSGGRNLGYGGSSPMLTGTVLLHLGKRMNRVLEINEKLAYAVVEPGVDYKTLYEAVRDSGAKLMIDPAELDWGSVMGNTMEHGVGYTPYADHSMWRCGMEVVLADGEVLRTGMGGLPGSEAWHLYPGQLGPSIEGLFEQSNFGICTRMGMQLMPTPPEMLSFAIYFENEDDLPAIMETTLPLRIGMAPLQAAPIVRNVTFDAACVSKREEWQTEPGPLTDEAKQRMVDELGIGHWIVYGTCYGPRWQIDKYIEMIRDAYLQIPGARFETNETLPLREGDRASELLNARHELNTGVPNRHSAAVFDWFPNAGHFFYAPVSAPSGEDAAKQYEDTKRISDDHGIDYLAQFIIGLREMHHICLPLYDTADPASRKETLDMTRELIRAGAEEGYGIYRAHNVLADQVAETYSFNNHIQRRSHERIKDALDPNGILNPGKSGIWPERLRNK
Assay: X-ray crystal structure, […] Å
Assay type: binding
Conditions: covalent; C8M of FAD to His395; pH 8.0 crystals

With `Cc1cc2nc3c(=O)[nH]c(=O)nc-3n(C[C@H](O)[C@H](O)[C@H](O)COP(=O)(O)OP(=O)(O)OC[C@H]3O[C@@H](n4cnc5c(N)ncnc54)[C@H](O)[C@@H]3O)c2cc1C` [FAD] the “X-ray crystal structure, 1.7 Å” value was “showing the covalent bond between the C8 M of FAD and His395”.
